Results on 7 compounds are retold here after ChEMBL document CHEMBL1909046, “DrugMatrix in vitro pharmacology data”.

For data set [1], the target named is T1, Alpha-1B adrenergic receptor (Rattus norvegicus, UniProt P15823).
T1 sequence (P15823 whole entry): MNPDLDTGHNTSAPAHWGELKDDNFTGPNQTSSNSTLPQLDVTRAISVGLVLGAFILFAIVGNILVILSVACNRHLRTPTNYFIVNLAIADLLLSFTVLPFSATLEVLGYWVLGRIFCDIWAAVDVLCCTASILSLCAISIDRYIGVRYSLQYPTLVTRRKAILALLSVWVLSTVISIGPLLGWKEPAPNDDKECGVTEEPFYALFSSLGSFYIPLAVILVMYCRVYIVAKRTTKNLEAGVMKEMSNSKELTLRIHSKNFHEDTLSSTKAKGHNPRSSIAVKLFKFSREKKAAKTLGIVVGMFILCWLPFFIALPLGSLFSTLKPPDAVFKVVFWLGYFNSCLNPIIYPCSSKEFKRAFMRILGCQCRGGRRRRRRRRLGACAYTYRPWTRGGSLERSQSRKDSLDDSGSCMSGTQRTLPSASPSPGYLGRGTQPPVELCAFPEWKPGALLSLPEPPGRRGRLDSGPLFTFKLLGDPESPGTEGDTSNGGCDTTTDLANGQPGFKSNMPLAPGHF
The data set can be described thus: DRUGMATRIX: Alpha-1B adrenergic receptor radioligand binding (ligand: prazosin). Type of data set: cell membranes, Wistar, Liver, Membrane. The following applies: Not Active = under 50% inhibition at 10 µM.

The target of data set [2] is T2, Type-2 angiotensin II receptor (Homo sapiens, UniProt P50052). Note: in other assays of this panel Not Active means under 50% inhibition at 10 µM.
T2 sequence (P50052 whole entry): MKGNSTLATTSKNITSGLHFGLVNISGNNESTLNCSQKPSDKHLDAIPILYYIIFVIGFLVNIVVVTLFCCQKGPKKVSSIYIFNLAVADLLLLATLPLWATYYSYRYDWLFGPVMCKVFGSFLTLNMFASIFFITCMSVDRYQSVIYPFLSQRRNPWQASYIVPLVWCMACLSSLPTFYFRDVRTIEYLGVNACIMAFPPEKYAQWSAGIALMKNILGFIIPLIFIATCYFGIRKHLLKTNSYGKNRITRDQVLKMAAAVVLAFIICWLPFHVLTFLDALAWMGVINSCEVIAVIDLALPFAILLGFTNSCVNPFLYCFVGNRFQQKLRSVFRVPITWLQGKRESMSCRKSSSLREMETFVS
Type of data set: cell-based. Particulars: cho-k1.

A short description of data set [3]: DRUGMATRIX: Atrial Natriuretic Factor (ANF) radioligand binding (ligand: [125I] ANF (rat)). The class given is cell membranes, Cavia porcellus, Dunkin-Hartley, Adrenal gland, Membrane. Particulars: Not Active = under 50% inhibition at 10 µM.
In data set [4] the target is C-C chemokine receptor type 2 (Homo sapiens, UniProt P41597). Type of data set: cell membranes, CHO-K1, Membrane. The following applies: cho-k1. Note: in other assays of this panel Not Active means under 50% inhibition at 10 µM.
Sequence of C-C chemokine receptor type 2 (P41597 whole entry): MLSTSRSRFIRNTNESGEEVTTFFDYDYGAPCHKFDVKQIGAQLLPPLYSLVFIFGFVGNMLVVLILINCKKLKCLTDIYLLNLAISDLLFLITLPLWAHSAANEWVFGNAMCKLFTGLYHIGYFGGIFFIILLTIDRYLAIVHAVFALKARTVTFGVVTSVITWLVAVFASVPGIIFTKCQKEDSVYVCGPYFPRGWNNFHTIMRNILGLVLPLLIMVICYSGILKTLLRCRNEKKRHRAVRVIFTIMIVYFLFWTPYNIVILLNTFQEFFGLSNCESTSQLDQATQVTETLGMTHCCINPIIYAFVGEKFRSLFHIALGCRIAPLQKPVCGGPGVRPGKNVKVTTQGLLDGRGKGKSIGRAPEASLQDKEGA
The target of data set [5] is T3, C-C chemokine receptor type 4 (Homo sapiens, UniProt P51679). Note: in other assays of this panel Not Active means under 50% inhibition at 10 µM.
T3 sequence (P51679 whole entry): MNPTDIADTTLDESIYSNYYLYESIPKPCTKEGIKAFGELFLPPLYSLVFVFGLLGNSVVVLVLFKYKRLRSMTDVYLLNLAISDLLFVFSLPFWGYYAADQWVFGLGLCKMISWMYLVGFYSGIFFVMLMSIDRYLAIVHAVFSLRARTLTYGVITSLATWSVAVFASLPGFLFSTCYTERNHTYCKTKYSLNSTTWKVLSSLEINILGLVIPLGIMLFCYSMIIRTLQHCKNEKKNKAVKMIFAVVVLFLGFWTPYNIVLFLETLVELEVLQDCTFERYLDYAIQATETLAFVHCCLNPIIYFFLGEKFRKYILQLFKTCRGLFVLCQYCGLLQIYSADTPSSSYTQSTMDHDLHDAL
Type of data set: cell membranes, Chem-1, Membrane. The following applies: chem-1.

A short description of data set [6]: DRUGMATRIX: Platelet-Derived Growth Factor (PDGF) radioligand binding (ligand: [125I] PDGF). The following applies: nih3t3; Not Active = under 50% inhibition at 10 µM. Type of data set: cell-based.
A further data set concerns the target Cytochrome P450 2D6 (Homo sapiens, UniProt P10635). Particulars: bti-tn-5b1-4. Note: in other assays of this panel Not Active means under 50% inhibition at 10 µM.
In a further data set the target is Estrogen receptor beta (Homo sapiens, UniProt Q92731). Particulars: sf9. Note: in other assays of this panel Not Active means under 50% inhibition at 10 µM.
Sequence of Estrogen receptor beta (Q92731 whole entry): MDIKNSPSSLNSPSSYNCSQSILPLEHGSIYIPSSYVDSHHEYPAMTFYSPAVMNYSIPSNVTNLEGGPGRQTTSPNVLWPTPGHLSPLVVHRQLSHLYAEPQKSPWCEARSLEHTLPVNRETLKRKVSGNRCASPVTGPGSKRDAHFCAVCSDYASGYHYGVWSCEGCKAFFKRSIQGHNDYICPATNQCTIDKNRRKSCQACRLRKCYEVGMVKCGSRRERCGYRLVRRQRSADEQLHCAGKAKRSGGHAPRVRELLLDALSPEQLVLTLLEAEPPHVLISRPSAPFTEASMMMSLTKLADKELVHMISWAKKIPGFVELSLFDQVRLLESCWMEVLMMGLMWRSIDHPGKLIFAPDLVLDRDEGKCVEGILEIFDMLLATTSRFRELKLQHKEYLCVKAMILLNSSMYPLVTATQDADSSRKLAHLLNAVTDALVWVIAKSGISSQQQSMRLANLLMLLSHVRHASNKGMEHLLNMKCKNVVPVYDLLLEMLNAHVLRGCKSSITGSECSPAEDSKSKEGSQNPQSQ

pIC50, pKi: −log10 of the molar value.

Sequence of Cytochrome P450 2D6 (P10635 whole entry): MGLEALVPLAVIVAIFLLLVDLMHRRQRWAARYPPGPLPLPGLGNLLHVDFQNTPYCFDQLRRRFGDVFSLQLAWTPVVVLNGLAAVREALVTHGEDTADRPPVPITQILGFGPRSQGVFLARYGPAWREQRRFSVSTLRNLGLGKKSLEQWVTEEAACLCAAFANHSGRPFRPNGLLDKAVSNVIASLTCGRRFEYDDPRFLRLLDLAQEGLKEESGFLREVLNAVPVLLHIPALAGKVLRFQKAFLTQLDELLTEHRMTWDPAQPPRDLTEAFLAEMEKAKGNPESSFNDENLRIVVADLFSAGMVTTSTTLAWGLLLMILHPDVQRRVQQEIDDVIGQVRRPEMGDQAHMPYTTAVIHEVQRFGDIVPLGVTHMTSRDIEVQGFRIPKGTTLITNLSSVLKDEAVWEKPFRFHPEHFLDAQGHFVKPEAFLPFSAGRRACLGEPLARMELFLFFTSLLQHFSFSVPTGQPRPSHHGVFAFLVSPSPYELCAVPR

Take `COc1ccc(Cl)cc1C(=O)NCCc1ccc(S(=O)(=O)NC(=O)NC2CCCCC2)cc1` [GLYBURIDE]: the IC50 result in data set [1], in data set [2], in data set [3], in data set [4], in data set [5] and in data set [6] was “Not Active” in each case. Besides, the IC50 entry against Cytochrome P450 2D6 and at Estrogen receptor beta was “Not Active” each time. Further, the Ki result (in data set [3]; in data set [6]; at Cytochrome P450 2D6) was “Not Active” throughout.
Take CARBOXYMETHYLCELLULOSE: the IC50 entry in data set [1], in data set [2], in data set [3], in data set [4], in data set [5] and in data set [6] was “Not Active” throughout. The IC50 result against Cytochrome P450 2D6 and against Estrogen receptor beta was “Not Active” in each case. Further, the Ki result in data set [1], in data set [2], in data set [3], in data set [4], in data set [5] and in data set [6] was “Not Active” each time. In addition, the Ki result on Cytochrome P450 2D6 and at Estrogen receptor beta was “Not Active” throughout.
`C=CCN1CC[C@]23c4c5ccc(O)c4O[C@H]2/C(=N/N=C2\CC[C@@]4(O)[C@H]6Cc7ccc(O)c8c7[C@@]4(CCN6CC=C)[C@H]2O8)CC[C@@]3(O)[C@H]1C5` [NALOXONAZINE]: the IC50 result in data set [1], in data set [2], in data set [3], in data set [4], in data set [5] and in data set [6] was “Not Active” throughout. Also, the IC50 result on Cytochrome P450 2D6 and against Estrogen receptor beta was “Not Active” each time. The Ki entry (in data set [3]; in data set [6]; on Cytochrome P450 2D6) was “Not Active” throughout.
Take `Cc1ccnc2c1NC(=O)c1cccnc1N2C1CC1` [NEVIRAPINE]: the IC50 entry in data set [1], in data set [2], in data set [3], in data set [4], in data set [5] and in data set [6] was “Not Active” throughout. For the same compound, the IC50 entry at Cytochrome P450 2D6 and on Estrogen receptor beta was “Not Active” throughout. For the same compound, the Ki result (in data set [3]; in data set [6]; at Cytochrome P450 2D6) was “Not Active” each time.
Turning to `NCC(CC(=O)O)c1ccc(Cl)cc1` (stereo not drawn) [BACLOFEN], the IC50 entry in data set [1], in data set [2], in data set [3], in data set [4], in data set [5] and in data set [6] was “Not Active” each time. Moreover, the IC50 entry against Cytochrome P450 2D6 and at Estrogen receptor beta was “Not Active” each time. Besides, the Ki entry (in data set [3]; in data set [6]; at Cytochrome P450 2D6) was “Not Active” in each case.
`CO[C@H]1O[C@@H]2O[C@@]3(C)CC[C@H]4[C@H](C)CC[C@@H]([C@H]1C)[C@@]24OO3`: the IC50 result in data set [1], in data set [2], in data set [3], in data set [4], in data set [5] and in data set [6] was “Not Active” each time. For the same compound, the IC50 result on Cytochrome P450 2D6 and at Estrogen receptor beta was “Not Active” throughout. Besides, the Ki entry (in data set [3]; in data set [6]; on Cytochrome P450 2D6) was “Not Active” each time.
For `CC(CN1c2ccccc2Sc2ccccc21)N(C)C` (stereo not drawn) [PROMETHAZINE], the pIC50 in data set [1] (read-out: IC50) is 7.41. For the same compound, the pKi in data set [1] (read-out: Ki) was 7.68. Further, the IC50 result (in data set [2]; in data set [3]; in data set [4]; in data set [5]; in data set [6]; against Cytochrome P450 2D6) was “Not Active” in each case. On Estrogen receptor beta, the IC50 entry was “Not Active”. In addition, the Ki entry (in data set [3]; in data set [6]; on Cytochrome P450 2D6) was “Not Active” each time.
